The record followed here is patent US20260306640A1, “TECHNOLOGIES TARGETING CELL STATES” (Auron Therapeutics, Inc., priority 2023, published 2026).

Holding throughout (format): cell-based
Assay [1] deals with KAT2B (Homo sapiens, UniProt Q92831). Nature of the assay: KAT2B degradation, Western Blot (Jess), NCI-H1048 cells. Details: degrader, Western blot (Jess). The note with it: NCI-H1048 cells, KAT2B, 24 h, Western Blot, vs DMSO; read-out: KAT2B NCI-H1048 DC50. Summed up:
(§1)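 NCI-H1048 cells grown in HITES medium with 5% FBS were treated with compounds for 24 h at 37° C. Lysates were run by capillary Western (Jess) with KAT2A or KAT2B antibodies and chemiluminescent detection. DC50 derived from percent protein reduction versus DMSO control.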
On the technique in general: In western blotting, separated proteins are transferred to a membrane and probed.

In assay [2] the test system is MOLM-13 cells. Kind of assay: Cell growth inhibition, AML cell line MOLM-13 (CyQuant, day 7). The note with it: Homo sapiens, 168 h; MOLM-13, day 7, CyQuant; read-out: MOLM13 GI50. An excerpt:
Among other things, provided technologies are useful for treating various diseases, disorders, or conditions. For example, in some embodiments, provided technologies are useful for treating cancer as confirmed in the present Example. […] In some embodiments, provided technologies can inhibit cell proliferation. In some embodiments, the present disclosure provides technologies for assessing various technologies, e.g., compounds, compositions, or methods. Among other things, the present Example provides technologies, e.g., cell growth inhibition assay, for assessing various technologies. […] In some embodiments, the following cell growth inhibition methods are utilized to assess provided technologies.
AML: AML cell line MOLM-13 cells were cultured in RPMI+15% FBS and were plated at 500 cells/well in 100 uL media in a U-bottom 96-well plate. Compounds were dilute to 3×final in full media and 50 uL were added to corresponding wells. Compound and media were replenished on days 2 and 5. On day 7, cells were transferred to a 96-well black bottom plate and CyQuant was performed per manufacturer's instructions.
In some assessments, for cell growth inhibition, cells, e.g., MOLM13, NCI-H1048, and LASCPC-01 cells, were counted using a hemocytometer or automated cell counting in triplicates. In some assessments, proliferation in NEPC organoids as measured with Cell Titer Glo reagent (Promega). Growth inhibition was determined relative to vehicle control.

In assay [3] the target is T1, KAT2A (Homo sapiens, UniProt Q92830). Kind of assay: KAT2A degradation, Western Blot (Jess), NCI-H1048 cells. Details: degrader, Western blot (Jess). The note with it: NCI-H1048 cells, KAT2A, 24 h, Western Blot, vs DMSO; read-out: KAT2A NCI-H1048 DC50. Summed up: as §1
Assay [4] has as its target T1, KAT2A. Nature of the assay: KAT2A degradation, Western Blot (Jess), MOLM-13 cells. Details: degrader, Western blot. The note with it: MOLM-13 cells, KAT2A, 24 h, Western Blot, vs DMSO; read-out: KAT2A MOLM-13 DC50. The gist of the method: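 MOLM-13 cells in RPMI 1640/20% FBS were treated with compound for 24 h at 37 °C. RIPA lysates (4 μg) were run on a capillary Western (Jess) with anti-KAT2A antibody and chemiluminescent detection. DC50 comes from percent protein reduction versus DMSO control.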

Chain of KAT2B (Q92831 whole entry): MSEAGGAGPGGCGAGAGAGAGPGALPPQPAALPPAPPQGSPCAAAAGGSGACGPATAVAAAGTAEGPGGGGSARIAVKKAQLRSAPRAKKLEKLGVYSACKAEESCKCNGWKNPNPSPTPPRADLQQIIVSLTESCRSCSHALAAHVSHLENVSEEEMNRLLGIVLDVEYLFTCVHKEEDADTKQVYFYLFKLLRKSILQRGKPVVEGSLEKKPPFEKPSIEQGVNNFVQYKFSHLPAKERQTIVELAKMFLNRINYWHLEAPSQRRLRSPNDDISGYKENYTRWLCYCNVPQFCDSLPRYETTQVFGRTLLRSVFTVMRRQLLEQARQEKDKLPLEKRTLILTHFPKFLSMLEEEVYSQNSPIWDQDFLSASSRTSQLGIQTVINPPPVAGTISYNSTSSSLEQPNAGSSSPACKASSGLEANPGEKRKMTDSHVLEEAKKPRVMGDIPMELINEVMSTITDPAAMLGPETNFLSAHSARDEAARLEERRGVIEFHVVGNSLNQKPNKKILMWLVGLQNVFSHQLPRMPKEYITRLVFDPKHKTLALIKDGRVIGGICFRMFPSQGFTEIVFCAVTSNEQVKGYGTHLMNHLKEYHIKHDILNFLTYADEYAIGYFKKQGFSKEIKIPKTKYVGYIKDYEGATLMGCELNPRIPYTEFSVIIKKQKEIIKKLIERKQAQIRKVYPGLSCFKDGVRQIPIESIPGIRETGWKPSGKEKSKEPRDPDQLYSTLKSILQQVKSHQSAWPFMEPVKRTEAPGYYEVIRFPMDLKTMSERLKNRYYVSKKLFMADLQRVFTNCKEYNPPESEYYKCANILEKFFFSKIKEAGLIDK
T1 sequence (Q92830 whole entry): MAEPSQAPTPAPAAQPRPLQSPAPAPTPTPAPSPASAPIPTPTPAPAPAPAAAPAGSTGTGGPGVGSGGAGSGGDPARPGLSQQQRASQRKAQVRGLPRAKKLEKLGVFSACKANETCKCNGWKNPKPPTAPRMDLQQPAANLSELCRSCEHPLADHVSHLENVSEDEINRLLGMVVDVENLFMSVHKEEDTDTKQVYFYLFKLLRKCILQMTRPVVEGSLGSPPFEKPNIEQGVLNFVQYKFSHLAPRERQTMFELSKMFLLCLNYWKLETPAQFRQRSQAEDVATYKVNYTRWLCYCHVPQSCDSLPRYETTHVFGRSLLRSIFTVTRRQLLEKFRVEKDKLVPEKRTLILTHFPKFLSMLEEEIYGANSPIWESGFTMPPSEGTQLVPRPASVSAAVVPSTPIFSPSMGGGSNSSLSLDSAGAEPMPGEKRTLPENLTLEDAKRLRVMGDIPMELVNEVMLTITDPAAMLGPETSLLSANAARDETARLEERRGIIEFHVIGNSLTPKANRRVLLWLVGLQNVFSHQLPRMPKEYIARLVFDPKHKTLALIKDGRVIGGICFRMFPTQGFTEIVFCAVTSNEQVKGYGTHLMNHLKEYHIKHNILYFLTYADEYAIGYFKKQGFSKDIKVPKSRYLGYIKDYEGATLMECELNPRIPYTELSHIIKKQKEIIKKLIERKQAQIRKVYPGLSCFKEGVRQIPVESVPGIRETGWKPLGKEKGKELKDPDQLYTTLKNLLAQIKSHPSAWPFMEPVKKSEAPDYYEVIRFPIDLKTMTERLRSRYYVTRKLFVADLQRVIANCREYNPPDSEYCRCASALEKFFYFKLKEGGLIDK

Usually DC50 stands for the midpoint of the concentration-degradation curve. By GI50 is commonly meant the concentration at which growth is held to half of that of the control. Take `CN1C[C@H](Nc2cnn(C)c(=O)c2Br)C[C@H](c2ccc(C(=O)N3CCC4(CC3)CCN(c3ccc(C5CCC(=O)NC5=O)cc3)CC4)cc2)C1` (single isomer, unassigned) [Compound 240]: the DC50 in assay [1] and in assay [3] was less than 1 nM throughout. The concentration for 50% growth inhibition (GI50) in assay [2] worked out at 3.9 nM.

In the case of `CN1C[C@H](Nc2cnn(C)c(=O)c2Cl)C[C@H](c2ccc(C(=O)N3CC4(CC(Oc5ccc(C6CCC(=O)NC6=O)c(F)c5)C4)C3)cc2)C1` (some centres unmarked) [Compound 2-44], the values for the DC50 in assay [1], in assay [4] and in assay [3] were less than 1 nM, 1 to 30 nM and less than 1 nM, respectively.

`CN1C[C@H](Nc2cnn(C)c(=O)c2Cl)C[C@H](c2ccc(C(=O)N3CCC4(CC3)CCN(c3ccc(C5CCC(=O)NC5=O)cn3)CC4)cc2)C1` (some centres unmarked) [Compound 2-52]: the DC50 in assay [1] and in assay [3] was less than 1 nM each time. The 50% growth inhibitory concentration (GI50) in assay [2] was determined as 0.4 nM.

Consider `CN1C[C@H](Nc2cnn(C)c(=O)c2Br)C[C@H](c2ccc(CN3CCN(c4ccc5c(c4)C(=O)N(C4CCC(=O)NC4=O)C5=O)CC3)cc2)C1` (some centres unmarked) [Compound 28], for which the DC50 in assay [1], in assay [4] and in assay [3] was less than 1 nM throughout.

Turning to `CN1C[C@H](Nc2cnn(C)c(=O)c2Br)C[C@H](c2ccc(CN3CCN(c4ccc5c(c4)CN(C4CCC(=O)NC4=O)C5=O)CC3)cc2)C1` (some centres unmarked) [Compound 67], the DC50 in assay [1], in assay [4] and in assay [3] was less than 1 nM each time.

With `CN1C[C@H](Nc2cnn(C)c(=O)c2Cl)C[C@H](c2ccc(CN3CCN(c4ccc5c(c4)CN(C4CCC(=O)NC4=O)C5=O)CC3)cc2)C1` (some centres unmarked) [Compound 72], the DC50 in assay [1], in assay [4] and in assay [3] was less than 1 nM in each case.

On to `CN1C[C@H](Nc2cnn(C)c(=O)c2Cl)C[C@H](c2ccc(COc3ccc4c(c3)C(=O)N(C3CCC(=O)NC3=O)C4=O)cc2)C1` (some centres unmarked) [Compound 110], for which the DC50 in assay [1], in assay [4] and in assay [3] was 1 to 30 nM throughout.

`Cc1cc(OC2CCN(C(=O)c3ccc([C@H]4C[C@@H](Nc5cnn(C)c(=O)c5Br)CN(C)C4)cc3)CC2)ccc1C1CCC(=O)NC1=O` (some centres unmarked) [Compound 114]: the DC50 in assay [1] is more than 30 nM; in assay [4], less than 1 nM; in assay [3] it was less than 1 nM.

Turning to `CN1C[C@H](Nc2cnn(C)c(=O)c2Br)C[C@H](c2ccc(C(=O)N3CCC(Oc4cccc(C5CCC(=O)NC5=O)c4)CC3)cc2)C1` (some centres unmarked) [Compound 120], the 50% degradation concentration (DC50) in assay [1] was more than 30 nM; in assay [4], 1 to 30 nM; in assay [3], less than 1 nM.

Consider `Cc1cc(OC2CCN(Cc3ccc([C@H]4C[C@@H](Nc5cnn(C)c(=O)c5Br)CN(C)C4)cc3)CC2)ccc1C1CCC(=O)NC1=O` (some centres unmarked) [Compound 123], for which the half-maximal degradation concentration (DC50) is more than 30 nM in assay [1], less than 1 nM in assay [4] and less than 1 nM in assay [3].

As to `CN1C[C@H](Nc2cnn(C)c(=O)c2Br)C[C@H](c2ccc(C(=O)N3CCC(Oc4ccc(C5CCC(=O)NC5=O)cc4F)CC3)cc2)C1` (some centres unmarked) [Compound 124], the DC50 is 1 to 30 nM in assay [1], less than 1 nM in assay [4] and less than 1 nM in assay [3].

For the compound `CN1C[C@H](Nc2cnn(C)c(=O)c2Br)C[C@H](c2ccc(CN3CCC(Oc4ccc(C5CCC(=O)NC5=O)cc4F)CC3)cc2)C1` (some centres unmarked) [Compound 125], the figures for the DC50 in assay [1], in assay [4] and in assay [3] were more than 30 nM, less than 1 nM and less than 1 nM, respectively.

Consider `CN1C[C@H](Nc2cnn(C)c(=O)c2Br)C[C@H](c2ccc(C(=O)N3CCC4(CC3)CN(c3ccc(C5CCC(=O)NC5=O)cc3)C4)cc2)C1` (some centres unmarked) [Compound 126], for which the half-maximal degradation concentration (DC50) in assay [1] is 1 to 30 nM; in assay [4], less than 1 nM; in assay [3], less than 1 nM.

As to `CN1C[C@H](Nc2cnn(C)c(=O)c2Br)C[C@H](c2ccc(CN3CCN(c4ccc(F)c(C5CCC(=O)NC5=O)c4)CC3)cc2)C1` (some centres unmarked) [Compound 152], the DC50 in assay [1] is 1 to 30 nM; in assay [4], 1 to 30 nM; in assay [3], less than 1 nM.

On to `CN1C[C@H](Nc2cnn(C)c(=O)c2Cl)C[C@H](c2ccc(CN3CCC4(CC3)CCN(c3ccc(C5CCC(=O)NC5=O)cc3)CC4)cc2)C1` (some centres unmarked) [Compound 155], for which the half-maximal degradation concentration (DC50) in assay [1], in assay [4] and in assay [3] was less than 1 nM in each case.

`CN1C[C@H](Nc2cnn(C)c(=O)c2Cl)C[C@H](c2ccc(CN3CCN(c4cccc(C5CCC(=O)NC5=O)c4)CC3)cc2)C1` (some centres unmarked) [Compound 162]: the DC50 in assay [1] is 1 to 30 nM; in assay [4] it was less than 1 nM; in assay [3], less than 1 nM.

With `CN1C[C@H](Nc2cnn(C)c(=O)c2Cl)C[C@H](c2ccc(CN3CCC(Oc4ccc(C5CCC(=O)NC5=O)cc4)CC3)cc2)C1` (some centres unmarked) [Compound 168], the figures for the DC50 in assay [1], in assay [4] and in assay [3] were 1 to 30 nM, less than 1 nM and less than 1 nM, respectively.

As to `CN1C[C@H](Nc2cnn(C)c(=O)c2Cl)C[C@H](c2ccc(CN3CCN(c4ccc5c(c4)C(=O)N(C4CCC(=O)NC4=O)C5=O)CC3)cc2)C1` (some centres unmarked) [Compound 175], the DC50 in assay [1] was 1 to 30 nM; in assay [4] it was less than 1 nM; in assay [3], less than 1 nM.

For the compound `CN1C[C@H](Nc2cnn(C)c(=O)c2Br)C[C@H](c2ccc(CN3CC(Oc4cccc(C5CCC(=O)NC5=O)c4)C3)cc2)C1` (some centres unmarked) [Compound 184], the half-maximal degradation concentration (DC50) in assay [1] was more than 30 nM; in assay [4], 1 to 30 nM; in assay [3] it was less than 1 nM.

In the case of `CN1C[C@H](Nc2cnn(C)c(=O)c2Br)C[C@H](c2ccc(C(=O)N3CC(Oc4cccc(C5CCC(=O)NC5=O)c4)C3)cc2)C1` (some centres unmarked) [Compound 185], the half-maximal degradation concentration (DC50) in assay [4] was less than 1 nM.

With `Cc1c(N[C@@H]2C[C@H](c3ccc(C(=O)N4CCC5(CC4)CCN(c4ccc(C6CCC(=O)NC6=O)cc4)CC5)cc3)CN(C)C2)cnn(C)c1=O` (some centres unmarked) [Compound 186], the DC50 in assay [1], in assay [4] and in assay [3] was less than 1 nM in each case.

Regarding `Cc1c(N[C@@H]2C[C@H](c3ccc(CN4CCN(c5cccc(C6CCC(=O)NC6=O)c5)CC4)cc3)CN(C)C2)cnn(C)c1=O` (some centres unmarked) [Compound 187], the results for the DC50 in assay [1], in assay [4] and in assay [3] were 1 to 30 nM, less than 1 nM and less than 1 nM, respectively.

Consider `Cc1c(N[C@@H]2C[C@H](c3ccc(CN4CCC(Oc5ccc(C6CCC(=O)NC6=O)cc5)CC4)cc3)CN(C)C2)cnn(C)c1=O` (some centres unmarked) [Compound 188], for which the DC50 was more than 30 nM in assay [1], less than 1 nM in assay [4] and less than 1 nM in assay [3].

Turning to `CN1C[C@H](Nc2cnn(C)c(=O)c2Cl)C[C@H](c2ccc(C(=O)N3CCC4(CC3)CCN(c3ccc5c(C6CCC(=O)NC6=O)nn(C)c5c3)CC4)cc2)C1` (stereo partly drawn) [Compound 208, 3-[6-[3-[4-[(3R,5R)-5-[(5-chloro-1-methyl-6-oxo-pyridazin-4-yl)amino]-1-methyl-3-piperidyl]benzoyl]-3,9-diazaspiro[5.5]undecan-9-yl]-1-methyl-indazol-3-yl]piperidine-2,6-dione], the DC50 in assay [1] and in assay [3] was less than 1 nM throughout. The GI50 in assay [2] came to 0.3 nM.

For the compound `Cc1cc(N2CCC3(CCN(C(=O)c4ccc([C@H]5C[C@@H](Nc6cnn(C)c(=O)c6C)CN(C)C5)cc4)CC3)CC2)ccc1C1CCC(=O)NC1=O` (some centres unmarked) [Compound 219], the 50% degradation concentration (DC50) in assay [1] and in assay [3] was less than 1 nM throughout. Besides, in assay [2], the GI50 is 5.9 nM.

As to `Cc1cc(N2CCC3(CCN(C(=O)c4ccc([C@H]5C[C@@H](Nc6cnn(C)c(=O)c6Cl)CN(C)C5)cc4)CC3)CC2)ccc1C1CCC(=O)NC1=O` (some centres unmarked) [Compound 223], the 50% degradation concentration (DC50) in assay [1] and in assay [3] was less than 1 nM in each case. For the same compound, the GI50 in assay [2] was determined as 4.4 nM.

`CN1C[C@H](Nc2cnn(C)c(=O)c2Cl)C[C@H](c2ccc(C(=O)N3CCC4(CC3)CCN(c3ccc(C5CCC(=O)NC5=O)c(F)c3)CC4)cc2)C1` (stereo partly drawn) [Compound 228, 3-[4-[3-[4-[(3R,5R)-5-[(5-chloro-1-methyl-6-oxo-pyridazin-4-yl)amino]-1-methyl-3-piperidyl]benzoyl]-3,9-diazaspiro[5.5]undecan-9-yl]-2-fluoro-phenyl]piperidine-2,6-dione]: the half-maximal degradation concentration (DC50) in assay [1] and in assay [3] was less than 1 nM each time. The GI50 in assay [2] is 0.9 nM.

`CN1CC(Nc2cnn(C)c(=O)c2Br)CC(c2ccc(C(=O)N3CCC4(CC3)CCN(c3ccc(C5CCC(=O)NC5=O)cc3)CC4)cc2)C1` (centres unmarked) [Compound 437]: in assay [2], the 50% growth inhibitory concentration (GI50) is 0.3 nM.
